Assay results published in US9663476B2, “Glycine transporter-1 inhibitors” (AMGEN INC., priority 2006, dated 2017).
pIC50: −log10 of the molar value. Structures can show the parent of a compound that is named as a salt.

Target: T1, human glycine transporter type 1 (Gly-T1) (Homo sapiens, UniProt P48067)
T1 construct: JAR) cells endogenously expressing human glycine transporter type 1 (Gly-T1); endogenous in cells; host or cells: JAR (human placental choriocarcinoma) cells
T1 sequence (P48067 1-706): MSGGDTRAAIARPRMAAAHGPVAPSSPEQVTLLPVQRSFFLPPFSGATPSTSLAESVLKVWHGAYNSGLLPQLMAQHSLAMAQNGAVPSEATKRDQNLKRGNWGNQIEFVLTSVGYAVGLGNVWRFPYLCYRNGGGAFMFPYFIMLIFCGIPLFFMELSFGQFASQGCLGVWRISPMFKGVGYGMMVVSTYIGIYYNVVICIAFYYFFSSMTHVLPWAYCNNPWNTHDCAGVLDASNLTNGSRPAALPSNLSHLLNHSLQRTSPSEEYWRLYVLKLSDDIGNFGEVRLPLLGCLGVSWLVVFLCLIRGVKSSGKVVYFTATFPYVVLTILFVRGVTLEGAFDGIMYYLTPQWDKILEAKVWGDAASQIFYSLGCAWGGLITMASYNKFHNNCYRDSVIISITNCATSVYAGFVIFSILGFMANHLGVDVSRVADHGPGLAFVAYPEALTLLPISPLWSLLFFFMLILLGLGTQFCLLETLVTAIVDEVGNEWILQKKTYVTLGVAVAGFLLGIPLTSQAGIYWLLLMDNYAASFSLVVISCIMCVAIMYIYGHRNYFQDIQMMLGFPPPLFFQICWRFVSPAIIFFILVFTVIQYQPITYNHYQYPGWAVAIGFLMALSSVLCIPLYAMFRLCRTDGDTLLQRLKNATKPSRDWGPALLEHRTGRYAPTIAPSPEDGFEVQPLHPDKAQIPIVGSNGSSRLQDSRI
Experiment: Glycine Transporter 1 (GlyT1) uptake assay, [14C] glycine uptake in JAR cells
Assay type: cell-based
Conditions: approximate IC50; inhibition of [14C] glycine (5 μM) uptake, JAR cells endogenously expressing human Gly-T1
Protocol: This cell-based assay measures the ability of test compounds to inhibit the uptake of glycine by the glycine transporter type 1. Human placental choriocarcinoma (JAR) cells endogenously expressing human glycine transporter type 1 (Gly-T1) were used for this assay. […] Cells were plated at a density of 4×10^4 cells/well and grown at 37° C. in a humidified atmosphere of 5% CO2 for 24 h.
Culture medium was removed from Cytostar plate and JAR cells were incubated with 30 μl of Uptake buffer (120 mM NaCl, 2 mM KCl, 1 mM CaCl2, 1 mM MgCl2, 10 mM Hepes, 5 mM alanine, pH 7.5) with or without compound for 5 min. […] After incubation at room temperature for the desired time usually 1-2 h, sealed 96-well Cytostar plates were counted on a TopCount (Packard).
IC50 curves were generated from the raw data collected from the TopCount and fitted with a four-parameter logistic equation using in-house data analysis tool, Activity Base.

Point of comparison: C[C@@H]1CN([C@H](c2ccccc2)c2ccc(C#Cc3ccccc3)cc2)CCN1CC(=O)O [Cpd 55A, 2-((R)-2-methyl-4-((R)-phenyl(4-(2-phenylethynyl)phenyl)methyl)piperazin-1-yl)acetic acid], pIC50 8.82. Against it:
- O=C(O)CN1CCN([C@H](c2ccccc2)c2cccc(C(F)(F)F)c2)CC1 [Cpd 1, (R)-2-(4-(phenyl(3-(trifluoromethyl)phenyl)methyl)piperazin-1-yl)acetic acid] — 1.72 log units lower, 7.10
- C[C@@H]1CN([C@H](c2ccccc2)c2cccc(Br)c2)CCN1CC(=O)O [Cpd 20, 2-((R)-4-((R)-(3-bromophenyl)(phenyl)methyl)-2-methylpiperazin-1-yl)acetic acid dihydrochloride salt] — the same, 8.82
- C[C@@H]1CN([C@H](c2ccccc2)c2cccc(C(F)(F)F)c2)CCN1CC(=O)O [Cpd 24, 2-((R)-2-methyl-4-((R)-phenyl(3-(trifluoromethyl)phenyl)methyl)piperazin-1-yl)acetic acid dihydrochloride salt] — 0.42 log units lower, 8.40
- C[C@@H]1CN([C@H](c2ccccc2)c2cccc(-c3ccccc3)c2)CCN1CC(=O)O [Cpd 30, [(R)-4-((R)-biphenyl-3-yl-phenyl-methyl)-2-methyl-piperazin-1-yl]-acetic acid] — 0.21 log units higher, 9.03
- Cc1cccc([C@@H](c2ccccc2)N2CCN(CC(=O)O)[C@H](C)C2)c1 [Cpd 34, 2-((R)-2-methyl-4-((R)-phenyl(m-tolyl)methyl)piperazin-1-yl)acetic acid] — 1.07 log units lower, 7.75
- Cc1cccc(-c2ccc([C@@H](c3ccccc3)N3CCN(CC(=O)O)[C@H](C)C3)cc2)c1 [Cpd 48, [(R)-2-methyl-4-[(R)-(3′-methyl-biphenyl-4-yl)-phenyl-methyl]-piperazin-1-yl]-acetic acid] — within 0.2 log units, 8.67
- Cc1ccc(-c2ccc([C@@H](c3ccccc3)N3CCN(CC(=O)O)[C@H](C)C3)cc2)cc1 [Cpd 49, [(R)-2-methyl-4-[(R)-(4′-methyl-biphenyl-4-yl)-phenyl-methyl]-piperazin-1-yl]-acetic acid] — 0.68 log units lower, 8.14
- C[C@@H]1CN(C(c2cccc(C(F)(F)F)c2)C2CC2)CCN1CC(=O)O (stereo partly drawn) [Cpd 77, 2-((R)-4-(cyclopropyl(3-(trifluoromethyl)phenyl)methyl)-2-methylpiperazin-1-yl)acetic acid dihydrochloride salt] — 1.43 log units lower, 7.39
- C[C@@H]1CN(C(c2ccc(Cl)cc2)c2ccc(Cl)cc2)CCN1CC(=O)O [Cpd 78, (R)-2-(4-(bis(4-chlorophenyl)methyl)-2-methylpiperazin-1-yl)acetic acid] — 0.50 log units lower, 8.32
- C[C@@H]1CN(C(c2ccc(Cl)cc2)c2ccc(Cl)cc2)CCN1[C@H](C)C(=O)O [Cpd 82, (R)-2-((R)-4-(bis(4-chlorophenyl)methyl)-2-methylpiperazin-1-yl)propanoic acid] — 3.16 log units lower, 5.66
